Results from patent US20110020786A1, “PEPTIDE DENDRIMERS: AFFINITY REAGENTS FOR BINDING NOROVIRUSES” (BAYLOR COLLEGE OF MEDICINE, priority 2007, published 2011).
Ends that are not written are not given here.

Legend:
[1] = test system: native genogroup II Norovirus from clinical samples; assay: Native NoV capture and detection in clinical samples by ELISA; assay type: binding; conditions: dendrimer as capture reagent, stool samples GII #1-3, bound virus detected with NS14
Method: The capture reagent was RHFQTHTVPLSL8 (the octovalent dendrimer of SEQ ID NO: 1) (middle bars), or AHFQTHTVPLSL8 (the octovalent dendrimer of SEQ ID NO: 2) (right bars) and bound virus was detected with a MAb3912 (GI) or NS14 (GII). […] For comparison, detection of Norovirus from genogroup I samples (GI#1-3) was evaluated using a genogroup I specific antibody as the capture reagent (left bars). The potential of false positive signals was evaluated using clinical samples negative for Norovirus (negative #1-3) with anti-genogroup I antibody, RHFQTHTVPLSL8 (the octovalent dendrimer of SEQ ID NO: 1) and AHFQTHTVPLSL8 (the octovalent dendrimer of SEQ ID NO: 2) as capture reagents.
Capture and detection of native NoV from clinical samples was performed by ELISA. […] Captured NoV was detected with an anti-Norwalk virus antibody from rabbit (for genogroup I Norwalk detection) or NS14 (for genogroup II NoV detection) as the primary antibody followed by goat anti-rabbit-HRP or goat anti-mouse-HRP as the secondary antibody with detection at 405 nm using the HRP substrate ABTS.

[2] = biological target: immobilized NoVLPs; assay: Surface plasmon resonance, dendrimer binding to immobilized NoVLPs (KD determination); set-up: species or system Norovirus; conditions: steady-state model fit of equilibrium average response, 8-240 μM dendrimer, HBS-P, 10 μL/min
Method: FIGS. 4A-4B are charts illustrating the concentration dependence of RHFQTHTVPLSL8 (the octovalent dendrimer of SEQ ID NO: 1) binding to immobilized NoVLPs. 1-8 μM; 2-32 μM; 3-64 μM; 4-96 μM; 5-160 μM; 6-240 μM; (FIG. 4A). Samples were prepared in the running buffer (HBS-P) and injected at a flowrate of 10 μL/min. The arrow indicates the end of the injection of the dendrimer (binding phase) which is followed by washing with running buffer (dissociation phase).
Peptide binding to VLPs was detected using a BIAcore 3000 instrument. VLPs were immobilized to a CM5 sensor chip using amine coupling at 5 μL/min in HBS buffer (10 mM HEPES containing 0.15 M NaCl and 0.005% surfactant P20, pH 7.4): the sensor chip surface was activated by a 10 min injection of a solution of 0.05 M NHS (N-hydroxysuccinimide) and 0.2 M EDC (N-ethyl-N′-dimethylaminopropylcarbodiimide) followed by a 5 min injection of VLPs (100 μg/mL) in 10 mM sodium acetate pH 4 and blocking of unreacted activated groups with a 7 min injection of ethanolamine. Final surface densities were typically around 9000 RU.

**Q.** Which “capture of native genogroup II Norovirus from clinical samples” value [1] does the source give for “RHFQTHTVPLSL8 (also: octovalent dendrimer of the peptide)” here?
**A.** The value was “No genogroup II virus could be detected”.

**Q.** What about the Kd [2] of the same substance?
**A.** Its Kd is 117 µM.
